Measurements from US12371454B2, “Cyclic peptide compound having Kras inhibitory action” (priority 2019, dated 2025).
Starred links: 1 amine or outer side, 2 acyl side, 3 side chain; linkers in the order of their positions; H or OH if unused. Positions of bridges follow the written chain, without caps; N, C: chain ends. Non-standard residues stand in square brackets, D forms with d. Residues, ends and D or L forms follow the SMILES beside them. *: point of attachment. hPhe(3,5-F2-4-CF3) = N[C@@H](CCc1cc(F)c(C(F)(F)F)c(F)c1)C(=O)O; hPhe(3-Cl-4-CF3) = N[C@@H](CCc1ccc(C(F)(F)F)c(Cl)c1)C(=O)O; NEtPhe(4-Me) = CCN[C@@H](Cc1ccc(C)cc1)C(=O)O; NMePhe(4-Me) = CN[C@@H](Cc1ccc(C)cc1)C(=O)O; NMedβ3hAla = C[C@H](CC(=O)[*:2])N(C)[*:1]; NMeAla(cPent) = CN[C@@H](CC1CCCC1)C(=O)O; NMeGly(cPent) = CN[C@H](C(=O)O)C1CCCC1; Pro(4,4-F2) = O=C(O)[C@@H]1CC(F)(F)CN1; NMehPhe = CN[C@@H](CCc1ccccc1)C(=O)O; NMeCha = CN[C@@H](CC1CCCCC1)C(=O)O; NMeAllylGly = C=CC[C@H](NC)C(=O)O; NMeChg = CN[C@H](C(=O)O)C1CCCCC1; NMeI = CC[C@H](C)[C@H](NC)C(=O)O; dNMeF = CN[C@H](Cc1ccccc1)C(=O)O; NMeD = CN[C@@H](CC(=O)O)C(=O)O; NMeL = CN[C@@H](CC(C)C)C(=O)O; NMeV = CN[C@H](C(=O)O)C(C)C; d(β3hA) = C[C@@H](N)CC(=O)O; dNMeS = CN[C@H](CO)C(=O)O; NMeA = CN[C@@H](C)C(=O)O; NMeAib = CNC(C)(C)C(=O)O; Piperidide = C1CCN(*)CC1; Pyrrolidide = C1CCN(*)C1; Ac5c = NC1(C(=O)O)CCCC1; Aze = O=C(O)[C@@H]1CCN1; Ac4c = NC1(C(=O)O)CCC1; Isopentyl = CC(C)CC*; Sar = CNCC(=O)O

Target: T1, Kras and SOS1 (biotin-tagged human Kras loaded with GDP, His-tagged human SOS1) (Homo sapiens, UniProt P01116, G12D)
T1 construct: made in house; host or cells: E. coli (stated for Kras only)
Experiment: Protein-protein interaction inhibition between Kras and SOS1 (KrasGl2D-SOS PPI) using AlphaScreen
Type: binding
Settings: AlphaScreen; biotin-tagged human Kras loaded with GDP, His-tagged human SOS1; read-out: KRAS G12D-SOS PPI IC50
Procedure, shortened: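 Energy transfer from nickel-chelate donor beads bound to His-SOS1 to streptavidin acceptor beads bound to biotin-Kras, expressed in E. coli and loaded with GDP after purification, was monitored. Donors were excited at 680 nm; singlet oxygen reaching acceptors gave emission read at 520-620 nm.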

T1 sequence (P01116 1-188 isoform P01116-2 G12D): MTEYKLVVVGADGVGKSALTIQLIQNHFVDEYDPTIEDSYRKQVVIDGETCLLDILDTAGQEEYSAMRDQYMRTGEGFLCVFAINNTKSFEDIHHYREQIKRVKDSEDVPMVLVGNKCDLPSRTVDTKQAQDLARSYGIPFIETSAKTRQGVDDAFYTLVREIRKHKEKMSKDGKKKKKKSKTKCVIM

Compared with `CC[C@H](C)[C@@H]1NC(=O)[C@H](CC(C)C)N(C)C(=O)C[C@@H](C(=O)N2CCCC2)N(C)C(=O)[C@H](C2CCCCC2)N(C)C(=O)C2(CCC2)NC(=O)[C@@H]2CC(F)(F)CN2C(=O)[C@H](CCc2ccc(C(F)(F)F)c(Cl)c2)NC(=O)CN(C)C(=O)[C@H](CC2CCCCC2)N(C)C(=O)CN(C)C(=O)CN(C)C1=O` [Compound 1163] ([NMeL]I[Sar][Sar][NMeCha][Sar][hPhe(3-Cl-4-CF3)][Pro(4,4-F2)][Ac4c][NMeChg][NMeD]-Pyrrolidide; lactam N-11), `CC(C)C[C@H]1C(=O)N[C@@H](CO)C(=O)N(C)CC(=O)N(C)CC(=O)N(C)[C@@H](CC2CCCCC2)C(=O)N(C)CC(=O)N[C@@H](CCc2ccc(C(F)(F)F)c(Cl)c2)C(=O)N2CCC[C@H]2C(=O)NC2(CCCC2)C(=O)N(C)[C@@H](C2CCCCC2)C(=O)N(C)[C@H](C(=O)N2CCCCC2)CC(=O)N1C` [Compound 1799] ([NMeL]S[Sar][Sar][NMeCha][Sar][hPhe(3-Cl-4-CF3)]P[Ac5c][NMeChg][NMeD]-Piperidide; lactam N-11) is 33-fold higher in IC50: 0.46 nM for the first, 15 nM for the second. The first is the more potent here.

Compared with `CC[C@H](C)[C@@H]1NC(=O)[C@H](CC(C)C)N(C)C(=O)C[C@@H](C(=O)N2CCCCC2)N(C)C(=O)[C@H](C2CCCC2)N(C)C(=O)C2(CCCC2)NC(=O)[C@@H](COCCC(C)C)N(C)C(=O)[C@H](CCc2ccc(C(F)(F)F)c(Cl)c2)NC(=O)CN(C)C(=O)[C@H](CC2CCCCC2)N(C)C(=O)[C@@H]2CCN2C(=O)[C@H](C)N(C)C1=O` [Compound 1443] ([NMeL]I[NMeA][Aze][NMeCha][Sar][hPhe(3-Cl-4-CF3)][dNMeS](Isopentyl)[Ac5c][NMeGly(cPent)][NMeD]-Piperidide; lactam N-11), `C=CC[C@H]1C(=O)NC2(CCCC2)C(=O)N(C)[C@@H](C(C)C)C(=O)N(C)[C@H](C(=O)N2CCCCC2)CC(=O)N(C)[C@@H](CC(C)C)C(=O)N[C@@H]([C@@H](C)CC)C(=O)N(C)[C@@H](C)C(=O)N2CC[C@H]2C(=O)N(C)[C@@H](CC2CCCCC2)C(=O)N(C)CC(=O)N[C@@H](CCc2ccc(C(F)(F)F)c(Cl)c2)C(=O)N1C` [Compound 1447] ([NMeL]I[NMeA][Aze][NMeCha][Sar][hPhe(3-Cl-4-CF3)][NMeAllylGly][Ac5c][NMeV][NMeD]-Piperidide; lactam N-11) is 4.3-fold higher in IC50: 23 nM for the first, 100 nM for the second.

Going from `CC[C@H](C)[C@@H]1NC(=O)[C@H](CC(C)C)N(C)C(=O)C[C@@H](C(=O)N2CCCCC2)N(C)C(=O)[C@H]([C@@H](C)CC)N(C)C(=O)C2(CCCC2)NC(=O)[C@@H](Cc2ccccc2)N(C)C(=O)[C@H](CCc2ccc(C(F)(F)F)c(Cl)c2)NC(=O)CN(C)C(=O)[C@H](Cc2ccc(C)cc2)N(C)C(=O)[C@@H]2CCN2C(=O)[C@H](C)N(C)C1=O` [Compound 1989] ([NMeL]I[NMeA][Aze][NMePhe(4-Me)][Sar][hPhe(3-Cl-4-CF3)][dNMeF][Ac5c][NMeI][NMeD]-Piperidide; lactam N-11) to `CC[C@H](C)[C@@H]1NC(=O)[C@H](CC2CCCC2)N(C)C(=O)C[C@@H](C(=O)N(C)C)N(C)C(=O)[C@H]([C@@H](C)CC)N(C)C(=O)C2(CCCC2)NC(=O)[C@@H]2CCCN2C(=O)[C@H](CCc2ccc(C(F)(F)F)c(Cl)c2)NC(=O)CN(C)C(=O)[C@H](Cc2ccc(C)cc2)N(C)C(=O)[C@@H]2CCN2C(=O)[C@H](C)NC1=O` [Compound 1141] ([NMeAla(cPent)]IA[Aze][NMePhe(4-Me)][Sar][hPhe(3-Cl-4-CF3)]P[Ac5c][NMeI][NMeD]-NMe2; lactam N-11), the IC50 falls from 460 nM to 0.97 nM (470-fold). The second is the more potent here.

First: CC[C@H](C)[C@@H]1NC(=O)[C@H](C)N(C)C(=O)C[C@@H](C)N(C)C(=O)[C@H](CC(C)C)NC(=O)C(C)(C)N(C)C(=O)[C@H](CC(C)C)NC(=O)[C@H](CCc2ccc(C(F)(F)F)c(Cl)c2)NC(=O)CN(C)C(=O)[C@H](Cc2ccc(C)cc2)N(C)C(=O)[C@@H]2CCN2C(=O)[C@H](C)N(C)C1=O [Compound 1402] (cyclo([Aze][NMePhe(4-Me)][Sar][hPhe(3-Cl-4-CF3)]L[NMeAib]L[NMedβ3hAla][NMeA]I[NMeA]))
Second: CC[C@H](C)[C@@H]1NC(=O)[C@H](CC(C)C)N(C)C(=O)C[C@@H](C(=O)N(C)C)N(C)C(=O)[C@H]([C@@H](C)CC)N(C)C(=O)C2(CCCC2)NC(=O)[C@@H]2CCCN2C(=O)[C@H](CCc2cc(F)c(C(F)(F)F)c(F)c2)NC(=O)CN(C)C(=O)[C@H](Cc2ccc(C)cc2)N(CC)C(=O)[C@@H]2CCN2C(=O)[C@H](C)N(C)C1=O [Compound 571] ([NMeL]I[NMeA][Aze][NEtPhe(4-Me)][Sar][hPhe(3,5-F2-4-CF3)]P[Ac5c][NMeI][NMeD]-NMe2; lactam N-11)
The IC50 of the first is 69-fold higher: 57 nM for the first, 0.83 nM for the second.

For `CC[C@H](C)[C@@H]1NC(=O)[C@H](CC(C)C)N(C)C(=O)C[C@@H](C)NC(=O)[C@H](C(C)C)N(C)C(=O)C2(CCCC2)NC(=O)[C@@H]2CCCN2C(=O)[C@H](CCc2ccc(C(F)(F)F)c(Cl)c2)NC(=O)CN(C)C(=O)[C@H](CCc2ccccc2)N(C)C(=O)CN(C)C(=O)CN(C)C1=O` [Compound 1627] (cyclo([Ac5c][NMeV][d(β3hA)][NMeL]I[Sar][Sar][NMehPhe][Sar][hPhe(3-Cl-4-CF3)]P)), the IC50 was 15 nM.
